The structures appear in SMILES notation. Read-outs that look alike come from different tables or passages of the source.

The text below walks through data of US20260285815A1, “Imidazolidinyl Vanillic Acid Ether Derivative and Use Thereof” (priority 2022, published 2026).

One data set can be described thus: in vivo. To be noted: rat, po, 15 mg/kg. More on the design: species or system SD rats. As for the experimental part:
Eighteen SD male rats (purchased from Weitong Lihua Experimental Animal Technology Co., Ltd., certificate number: 20211103Aazz0619000910), weighing 240-280 g, were randomly divided into 6 groups, with 3 rats in each group. The animals were fasted overnight before administration. On the day of administration, the compounds of Examples 3, 4, 5, 6, Compound A. and Compound A methyl ester were gavaged to the animals in each groups respectively, and the dosage was 15 mg/kg (calculated as Compound A). Before administration and 0.25, 0.5, 1, 2, 4, 6, 8, and 24 h after administration, 0.15 mL of blood was collected from the animals through the jugular sinus and placed in an EDTA-K2 anticoagulant tube containing 3 μL of dichlorvos aqueous solution (10 mg/mL). After centrifugation, plasma was collected, and was placed in the sample, and then 10 μL of plasma sample was taken, 500 μL of acetonitrile containing IS (verapamil 5 ng·mL^−1, glibenclamide 50 ng·mL^−1, tolbutamide 200 ng·mL^−1, and diclofenac 200 ng·mL^−1) was added, vortexed for 10 min, and then centrifuged at 3700 rpm for 10 min, and then 70 μL of supernatant and 70 μL of water were added, and vortexed for 10 min. An aliquot of 2 μL of the mixture was injected into the LC-MS/MS system (Triple Quad 5500+: LC-MS-MS-022) to measure blood concentration of the compounds. WinNonlin 8.0 software was used to analyze the pharmacokinetic parameters.

Data set [1] has as its system adenosine diphosphate (ADP)-induced platelet aggregation. To be noted: rabbit; from CN101851209B; cited from earlier work.
For data set [2] the following is noted: background statement; cited from earlier work.
For data set [3] the following is noted: background statement; cited from earlier work. The source holds these as a separate data set.
The test system of data set [4] is arteriovenous bypass thrombi in rats. The data set is described as follows: Antithrombotic activity in vivo: arteriovenous bypass thrombosis in rats. The following applies: for inhibition at 15 mg/kg: Rattus norvegicus, po.
Procedure: Each group was given corresponding drugs by gavage (dosage was 15 mg/kg), and the normal control group was given an equal volume of solvent, all of which were given by single gavage. One hour after the last administration, the rats were anesthetized with 3% chloral hydrate intraperitoneally, and the right common carotid artery and left external jugular vein were isolated in a supine position. A polyethylene tube was taken with an inner diameter of 1.5 mm and a length of 10 cm, a 6 cm long silk thread (pre-weighed) was inserted into it, and the polyethylene tube was filled with normal saline solution of heparin (50 U/ml). One end of the polyethylene tube was inserted into the left external jugular vein, heparin (50 U/kg) was injected, and the other end was inserted into the right common carotid artery. After blood flow was opened for 15 minutes, the blood flow was interrupted and the silk thread was quickly taken out and weighed. The total weight minus the original silk thread weight was the wet weight of the thrombus. The silk thread was placed in an oven for drying at 70° C. The dry weight of the thrombus was obtained by weighing the silk thread minus the original silk thread weight, and the inhibition rate was calculated.

One may read the AUC(0-inf) as total exposure, with the tail of the curve extrapolated. The low end stands for less exposure, the high end for more exposure. Usually AUC(0-t) stands for exposure summed from dosing to a finite time, without extrapolation to infinity. Read a high AUC(0-t) as high exposure. Broadly, the Cmax is the peak of the concentration-time curve. As usually defined, the MRT last is the average time that molecules of a dose stay in the body. A word on the Tmax: it is the time from dosing to the highest level. One may read the half-life as how long it takes for the measured level to halve. Low readings indicate rapid decline, high ones slow decline. A word on the inhibition: it is the share of the control response that was lost under treatment. Turning to `COc1cc(C(=O)O)ccc1OCCn1ccnc1` [Compound A, reference compound], in the data set “in vivo”, the AUC(0-inf) is 1720 ng·h/mL, the AUC(0-t) amounted to 1610 ng·h/mL, the Cmax was 604 ng/mL and the mean residence time (MRT last) was 5.4 h. For the same compound, in the data set “in vivo”, the time of peak concentration (Tmax) is 0.35 h and the half-life is 10.7 h. The “Inhibitory effect on ADP-induced platelet aggregation” value in data set [1] is listed as “significant inhibitory effect”. For the same compound, the Oral bioavailability entry in data set [2] is given as “low”. Further, the “Ability to penetrate the blood-brain barrier” value in data set [3] is recorded as “weak”. The inhibition at 15 mg/kg in data set [4] (read-out: Inhibition rate (thrombus dry weight)) is 36%. Further, in data set [4] (read-out: Inhibition rate (thrombus wet weight)), the inhibition at 15 mg/kg was found to be 31%. Besides, in data set [4] (rat arteriovenous bypass, 15 mg/kg single gavage, 1 h after dosing, 15 min blood flow, x ± s, n = 8), the Thrombus wet weight is given as 69.8 ± 11.2^★★ mg. The Thrombus dry weight in data set [4] (rat arteriovenous bypass, 15 mg/kg single gavage, thread dried at 70° C., x ± s, n = 8) is reported as 21.8 ± 6.0^★★ mg.
On to `COC(=O)c1ccc(OCCn2ccnc2)c(OC)c1` [Compound A methyl ester, reference compound], for which, in “in vivo”, the AUC(0-inf) is 1600 ng·h/mL, the AUC(0-t) was 1490 ng·h/mL, the Cmax amounted to 513 ng/mL and the “F (bioavailability relative to compound A)” value was found to be 92.18%. Besides, in the data set “in vivo”, the MRT last was found to be 6.5 h, the Tmax came out at 0.46 h and the half-life is 8.4 h.
Regarding `COc1cc(C(=O)OCOC(=O)OC(C)C)ccc1OCCn1ccnc1` [Example 5, ((isopropoxycarbonyl)oxy)methyl-4-(2-(1H-imidazol-1-yl)ethoxy)-3-methoxybenzoate], in “in vivo”, the AUC(0-inf) was determined as 3000 ng·h/mL, the AUC(0-t) turned out to be 2890 ng·h/mL, the Cmax was 7080 ng/mL and the “F (bioavailability relative to compound A)” value was 179.28%. Further, in the data set “in vivo”, the MRT last was 0.85 h, the Tmax was 0.25 h and the half-life is 3.43 h.
As to `COc1cc(C(=O)OCCCCCC(=O)O)ccc1OCCn1ccnc1` [Example 3, 6-(4-(2-(1H-imidazol-1-yl)ethoxy)-3-methoxybenzoyloxy)hexanoic acid], in the data set “in vivo”, the AUC(0-inf) came out at 3380 ng·h/mL, the AUC(0-t) worked out at 3230 ng·h/mL, the maximum concentration (Cmax) turned out to be 8590 ng/mL and the “F (bioavailability relative to compound A)” value came out at 200.37%. In addition, in “in vivo”, the MRT last stood at 0.47 h, the Tmax came out at 0.25 h and the half-life is 3.06 h.
For the compound `COc1cc(C(=O)OC(C)OC(C)=O)ccc1OCCn1ccnc1` (centres unmarked) [Example 6, 1-acetoxyethyl-4-(2-(1H-imidazol-1-yl)ethoxy)-3-methoxybenzoate], in the data set “in vivo”, the AUC(0-inf) came to 3170 ng·h/mL, the AUC(0-t) was 2850 ng·h/mL, the concentration peaked (Cmax) at 8140 ng/mL and the “F (bioavailability relative to compound A)” value is given as 176.8%. For the same compound, in “in vivo”, the MRT last was 1.09 h, the Tmax came to 0.25 h and the half-life was 4.86 h.
